{"source": "patent US12157741B2", "about": "“Macrocyclic inhibitors of DYRK1A” (DANA-FARBER CANCER INSTITUTE, INC., priority 2018, dated 2024)", "key": {"various enzymes [1]": {"biological_target": "various enzymes (Homo sapiens, UniProt O00141)", "sequence (O00141 whole entry)": "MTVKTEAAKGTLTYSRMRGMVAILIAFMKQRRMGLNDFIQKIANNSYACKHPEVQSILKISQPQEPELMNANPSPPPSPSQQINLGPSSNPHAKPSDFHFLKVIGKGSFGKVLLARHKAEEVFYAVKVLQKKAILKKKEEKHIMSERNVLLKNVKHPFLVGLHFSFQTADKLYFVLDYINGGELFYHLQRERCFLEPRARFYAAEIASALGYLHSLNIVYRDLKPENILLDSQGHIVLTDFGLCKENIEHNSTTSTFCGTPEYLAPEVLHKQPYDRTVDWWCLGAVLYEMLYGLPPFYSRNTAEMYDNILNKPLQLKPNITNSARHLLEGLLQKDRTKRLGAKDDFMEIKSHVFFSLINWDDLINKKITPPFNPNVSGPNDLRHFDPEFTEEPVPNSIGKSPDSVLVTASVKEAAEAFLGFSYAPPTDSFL", "assay": "Enzyme IC50 of compound 48 (Table 3)", "type": "biochemical", "settings": "SGK"}, "various enzymes [2]": {"biological_target": "T1, various enzymes (Homo sapiens, UniProt P36888, D835V, form not given)", "T1 construct": "Enzyme IC50; other: FLT3(ITD, D835V)", "assay": "Enzyme IC50 of compound 48 (Table 3)", "type": "biochemical", "settings": "read-out: Enzyme IC50; FLT3(ITD, D835V)"}, "various enzymes [3]": {"biological_target": "various enzymes (Homo sapiens, UniProt P36888, D835V, form not given)"}, "various enzymes [4]": {"biological_target": "various enzymes (Homo sapiens, UniProt P36888, F691L, form not given)"}, "various enzymes [5]": {"biological_target": "T2, various enzymes (Homo sapiens, UniProt Q6P2M8)", "T2 sequence (Q6P2M8 whole entry)": "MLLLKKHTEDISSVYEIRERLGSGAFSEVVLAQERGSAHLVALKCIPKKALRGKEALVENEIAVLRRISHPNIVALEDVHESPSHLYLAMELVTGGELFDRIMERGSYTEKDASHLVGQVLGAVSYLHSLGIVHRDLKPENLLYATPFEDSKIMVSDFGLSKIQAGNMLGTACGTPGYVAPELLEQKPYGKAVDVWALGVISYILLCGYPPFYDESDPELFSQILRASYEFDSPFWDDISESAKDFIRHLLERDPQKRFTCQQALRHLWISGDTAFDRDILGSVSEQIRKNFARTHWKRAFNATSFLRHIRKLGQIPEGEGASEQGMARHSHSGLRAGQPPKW", "settings": "CAMK1B; 1 uM", "method": "(§2) Ambit profiling from Eurofins (formerly Discoverx) was conducted in accordance with the manufacturer's instructions."}, "various enzymes [6]": {"biological_target": "various enzymes (Homo sapiens, UniProt Q9Y2I7)", "sequence (Q9Y2I7 whole entry)": "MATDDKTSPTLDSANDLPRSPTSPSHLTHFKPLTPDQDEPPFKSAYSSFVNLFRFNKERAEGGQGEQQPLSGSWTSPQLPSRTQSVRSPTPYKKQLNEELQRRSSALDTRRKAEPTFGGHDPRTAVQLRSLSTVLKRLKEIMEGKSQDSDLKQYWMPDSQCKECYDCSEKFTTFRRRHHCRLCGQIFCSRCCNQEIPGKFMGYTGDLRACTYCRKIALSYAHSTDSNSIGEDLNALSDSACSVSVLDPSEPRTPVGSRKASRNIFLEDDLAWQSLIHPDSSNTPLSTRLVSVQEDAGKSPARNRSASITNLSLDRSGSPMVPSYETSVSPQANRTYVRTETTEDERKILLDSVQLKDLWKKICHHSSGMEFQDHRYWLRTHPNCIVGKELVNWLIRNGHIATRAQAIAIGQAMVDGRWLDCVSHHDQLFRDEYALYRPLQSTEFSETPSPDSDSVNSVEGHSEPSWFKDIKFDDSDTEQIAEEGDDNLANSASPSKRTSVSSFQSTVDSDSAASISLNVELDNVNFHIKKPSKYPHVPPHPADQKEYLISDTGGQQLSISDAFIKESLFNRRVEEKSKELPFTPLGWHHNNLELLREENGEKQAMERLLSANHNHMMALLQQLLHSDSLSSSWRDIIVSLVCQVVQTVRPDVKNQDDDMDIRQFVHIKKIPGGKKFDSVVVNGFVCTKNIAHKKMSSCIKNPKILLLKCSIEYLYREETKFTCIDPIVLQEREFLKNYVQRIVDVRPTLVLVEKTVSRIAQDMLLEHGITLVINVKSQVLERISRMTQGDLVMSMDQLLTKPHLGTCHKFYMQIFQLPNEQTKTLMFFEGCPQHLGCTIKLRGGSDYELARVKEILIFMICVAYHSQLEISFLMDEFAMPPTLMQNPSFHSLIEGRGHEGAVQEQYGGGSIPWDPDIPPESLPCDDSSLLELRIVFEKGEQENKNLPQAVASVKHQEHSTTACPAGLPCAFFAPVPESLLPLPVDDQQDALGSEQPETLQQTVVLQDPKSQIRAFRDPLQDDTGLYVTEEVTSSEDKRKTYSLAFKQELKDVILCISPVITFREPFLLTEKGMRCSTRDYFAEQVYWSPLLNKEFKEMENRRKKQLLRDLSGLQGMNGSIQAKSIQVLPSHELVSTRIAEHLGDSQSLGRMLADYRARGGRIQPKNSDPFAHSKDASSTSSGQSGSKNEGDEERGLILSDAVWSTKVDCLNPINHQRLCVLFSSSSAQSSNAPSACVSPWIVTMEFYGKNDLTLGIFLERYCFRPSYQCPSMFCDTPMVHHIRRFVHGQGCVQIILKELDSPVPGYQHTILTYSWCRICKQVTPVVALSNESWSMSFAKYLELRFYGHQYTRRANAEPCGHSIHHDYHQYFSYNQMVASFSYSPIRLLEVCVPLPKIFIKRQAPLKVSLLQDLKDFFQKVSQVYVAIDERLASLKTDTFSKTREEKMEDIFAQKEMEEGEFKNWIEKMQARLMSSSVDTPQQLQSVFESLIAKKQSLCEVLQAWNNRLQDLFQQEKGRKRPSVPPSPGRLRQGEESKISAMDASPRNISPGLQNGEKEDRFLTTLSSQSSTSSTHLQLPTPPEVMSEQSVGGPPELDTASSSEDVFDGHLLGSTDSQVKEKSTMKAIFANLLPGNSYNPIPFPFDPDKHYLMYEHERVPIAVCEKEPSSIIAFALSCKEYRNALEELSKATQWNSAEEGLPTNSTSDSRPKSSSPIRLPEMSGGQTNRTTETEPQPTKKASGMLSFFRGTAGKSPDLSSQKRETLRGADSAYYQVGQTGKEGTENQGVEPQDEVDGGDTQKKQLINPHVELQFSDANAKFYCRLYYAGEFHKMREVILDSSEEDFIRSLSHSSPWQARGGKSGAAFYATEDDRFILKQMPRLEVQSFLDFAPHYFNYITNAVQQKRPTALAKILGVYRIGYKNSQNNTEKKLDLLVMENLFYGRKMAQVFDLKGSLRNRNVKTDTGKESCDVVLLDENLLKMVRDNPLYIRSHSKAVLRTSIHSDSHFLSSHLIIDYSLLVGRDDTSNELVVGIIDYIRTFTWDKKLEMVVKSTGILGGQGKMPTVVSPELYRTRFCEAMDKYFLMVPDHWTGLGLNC", "settings": "PIKFYVE; 1 uM", "method": "as §2"}, "various enzymes [7]": {"biological_target": "T3, various enzymes (Homo sapiens, UniProt P45985)", "T3 sequence (P45985 1-399)": "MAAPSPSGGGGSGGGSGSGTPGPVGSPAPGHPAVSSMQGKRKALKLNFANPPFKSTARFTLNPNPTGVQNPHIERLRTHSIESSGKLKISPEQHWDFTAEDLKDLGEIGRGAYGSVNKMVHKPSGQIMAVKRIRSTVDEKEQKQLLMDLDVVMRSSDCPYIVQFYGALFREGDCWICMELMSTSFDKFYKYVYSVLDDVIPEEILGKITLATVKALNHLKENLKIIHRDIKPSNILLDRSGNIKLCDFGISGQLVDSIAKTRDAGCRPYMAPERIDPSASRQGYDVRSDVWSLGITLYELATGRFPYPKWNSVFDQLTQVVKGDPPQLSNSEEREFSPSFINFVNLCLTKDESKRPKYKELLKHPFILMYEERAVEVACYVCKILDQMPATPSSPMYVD", "assay": "Enzyme IC50 of compound 48 (Table 3)", "type": "biochemical", "parameters": "Enzyme IC50; other: MEK4", "settings": "MEK4"}, "various enzymes [8]": {"biological_target": "T2, various enzymes", "assay": "Enzyme IC50 of compound 48 (Table 3)", "type": "biochemical", "parameters": "Enzyme IC50; other: CAMK1B", "settings": "CAMK1B"}, "DYRK1B": {"biological_target": "T4, DYRK1B (Homo sapiens, UniProt Q9Y463)", "T4 construct": "purchased Invitrogen (assay run by the vendor)", "assay": "Invitrogen Zlyte assay, DYRK1B", "type": "biochemical"}, "[9]": {"system": "various enzymes (Homo sapiens)", "sequence (Q9NQU5 whole entry)": "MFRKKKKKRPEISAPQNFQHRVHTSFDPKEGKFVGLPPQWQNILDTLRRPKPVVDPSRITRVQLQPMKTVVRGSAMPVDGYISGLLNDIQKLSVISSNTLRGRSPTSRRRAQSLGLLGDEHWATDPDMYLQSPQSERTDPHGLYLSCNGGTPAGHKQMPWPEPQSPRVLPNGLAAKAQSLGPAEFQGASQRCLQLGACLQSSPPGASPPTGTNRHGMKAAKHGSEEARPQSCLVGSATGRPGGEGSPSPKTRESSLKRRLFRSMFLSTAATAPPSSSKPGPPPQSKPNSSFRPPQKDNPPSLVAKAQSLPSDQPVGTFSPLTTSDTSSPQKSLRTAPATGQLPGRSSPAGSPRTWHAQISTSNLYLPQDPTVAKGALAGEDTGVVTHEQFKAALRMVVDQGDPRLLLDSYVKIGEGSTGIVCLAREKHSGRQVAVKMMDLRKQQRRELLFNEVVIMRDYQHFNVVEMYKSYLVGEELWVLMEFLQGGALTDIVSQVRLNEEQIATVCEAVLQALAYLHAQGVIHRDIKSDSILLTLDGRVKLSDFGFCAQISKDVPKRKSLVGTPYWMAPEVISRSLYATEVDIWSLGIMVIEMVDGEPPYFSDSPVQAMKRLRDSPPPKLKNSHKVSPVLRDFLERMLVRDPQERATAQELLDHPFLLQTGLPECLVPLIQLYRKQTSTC", "type": "binding", "settings": "compound 1 uM", "experimental": "(§1) Ambit profiling was conducted in accordance with the manufacturer's instructions."}, "various enzymes [10]": {"biological_target": "various enzymes (Homo sapiens, UniProt P09769)", "sequence (P09769 whole entry)": "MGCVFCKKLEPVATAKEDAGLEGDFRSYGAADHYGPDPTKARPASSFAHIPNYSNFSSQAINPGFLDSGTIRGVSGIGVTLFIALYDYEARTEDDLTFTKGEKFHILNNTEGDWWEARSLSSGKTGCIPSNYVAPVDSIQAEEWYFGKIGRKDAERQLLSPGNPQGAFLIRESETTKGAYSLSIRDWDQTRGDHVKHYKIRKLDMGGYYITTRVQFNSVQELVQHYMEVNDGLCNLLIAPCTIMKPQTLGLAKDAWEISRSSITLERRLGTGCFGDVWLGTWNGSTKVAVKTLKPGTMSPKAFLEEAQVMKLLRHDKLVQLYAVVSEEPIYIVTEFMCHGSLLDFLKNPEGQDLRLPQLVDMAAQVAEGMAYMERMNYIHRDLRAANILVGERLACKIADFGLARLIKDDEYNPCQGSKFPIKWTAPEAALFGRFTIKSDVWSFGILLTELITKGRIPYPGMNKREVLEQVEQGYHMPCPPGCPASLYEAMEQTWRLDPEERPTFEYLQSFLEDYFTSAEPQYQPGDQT", "type": "binding", "settings": "compound 1 uM", "experimental": "as §1"}, "various enzymes [11]": {"biological_target": "T5, various enzymes (Homo sapiens, UniProt P36888)", "T5 sequence (P36888 1-993)": "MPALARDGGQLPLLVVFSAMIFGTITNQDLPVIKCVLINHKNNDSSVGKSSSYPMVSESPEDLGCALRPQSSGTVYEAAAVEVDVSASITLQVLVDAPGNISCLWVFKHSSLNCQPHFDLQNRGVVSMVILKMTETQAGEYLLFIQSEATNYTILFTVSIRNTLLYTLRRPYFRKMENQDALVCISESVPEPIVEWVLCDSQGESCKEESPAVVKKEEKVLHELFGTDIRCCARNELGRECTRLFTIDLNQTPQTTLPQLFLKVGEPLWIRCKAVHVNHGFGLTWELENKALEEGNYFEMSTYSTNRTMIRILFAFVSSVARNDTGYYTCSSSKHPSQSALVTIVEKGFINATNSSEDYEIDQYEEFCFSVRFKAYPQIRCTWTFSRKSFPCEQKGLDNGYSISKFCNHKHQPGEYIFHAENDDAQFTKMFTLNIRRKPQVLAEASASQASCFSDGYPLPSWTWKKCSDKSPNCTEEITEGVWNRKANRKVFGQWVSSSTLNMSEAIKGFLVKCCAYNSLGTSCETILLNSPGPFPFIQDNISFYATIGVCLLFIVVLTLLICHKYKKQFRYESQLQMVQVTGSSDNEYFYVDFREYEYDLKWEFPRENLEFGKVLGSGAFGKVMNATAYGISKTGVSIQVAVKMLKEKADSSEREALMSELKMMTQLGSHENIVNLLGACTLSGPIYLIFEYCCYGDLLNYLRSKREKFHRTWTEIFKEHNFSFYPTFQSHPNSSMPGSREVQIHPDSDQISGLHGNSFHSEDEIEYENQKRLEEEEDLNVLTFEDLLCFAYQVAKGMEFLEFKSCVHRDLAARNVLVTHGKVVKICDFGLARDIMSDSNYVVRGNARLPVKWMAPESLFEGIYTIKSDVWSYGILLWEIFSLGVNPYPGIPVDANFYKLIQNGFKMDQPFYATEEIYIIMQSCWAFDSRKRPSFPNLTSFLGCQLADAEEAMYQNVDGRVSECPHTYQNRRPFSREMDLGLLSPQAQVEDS", "type": "binding", "parameters": "other: FLT3(ITD); 1 uM; other: compound 1 uM", "settings": "compound 1 uM", "experimental": "as §1"}, "various enzymes [12]": {"biological_target": "various enzymes (Homo sapiens, UniProt P30530)", "sequence (P30530 26-894)": "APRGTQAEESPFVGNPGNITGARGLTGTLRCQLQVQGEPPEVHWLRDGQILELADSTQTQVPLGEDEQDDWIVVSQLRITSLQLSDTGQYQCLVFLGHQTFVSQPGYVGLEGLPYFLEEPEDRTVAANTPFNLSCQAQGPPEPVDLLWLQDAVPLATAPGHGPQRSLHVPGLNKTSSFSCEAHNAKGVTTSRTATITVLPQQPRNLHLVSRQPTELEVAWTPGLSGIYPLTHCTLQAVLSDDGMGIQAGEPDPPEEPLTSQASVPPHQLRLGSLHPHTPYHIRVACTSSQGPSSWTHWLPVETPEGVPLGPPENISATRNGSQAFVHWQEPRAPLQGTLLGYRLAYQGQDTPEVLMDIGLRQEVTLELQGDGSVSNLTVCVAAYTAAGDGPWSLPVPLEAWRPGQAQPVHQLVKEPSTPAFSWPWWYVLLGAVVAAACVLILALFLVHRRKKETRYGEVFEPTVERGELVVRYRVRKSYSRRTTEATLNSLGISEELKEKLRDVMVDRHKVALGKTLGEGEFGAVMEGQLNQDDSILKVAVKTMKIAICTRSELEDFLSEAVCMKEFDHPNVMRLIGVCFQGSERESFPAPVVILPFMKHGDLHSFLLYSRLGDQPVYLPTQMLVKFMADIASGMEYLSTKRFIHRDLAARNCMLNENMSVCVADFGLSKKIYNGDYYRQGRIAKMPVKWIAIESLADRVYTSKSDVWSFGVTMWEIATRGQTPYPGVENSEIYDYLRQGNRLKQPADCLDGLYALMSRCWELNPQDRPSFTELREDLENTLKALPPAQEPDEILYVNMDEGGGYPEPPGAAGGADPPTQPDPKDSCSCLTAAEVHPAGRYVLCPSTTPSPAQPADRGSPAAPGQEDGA", "type": "binding", "settings": "compound 1 uM", "experimental": "as §1"}, "various enzymes [13]": {"biological_target": "various enzymes (Homo sapiens, UniProt Q13627)", "type": "binding", "settings": "compound 1 uM", "experimental": "as §1"}, "various enzymes [14]": {"biological_target": "various enzymes (Homo sapiens, UniProt Q9NQU5)", "sequence (Q9NQU5 whole entry)": "as the sequence (Q9NQU5 whole entry) above", "type": "binding", "settings": "compound 1 uM", "experimental": "as §1"}, "various enzymes [15]": {"system": "various enzymes", "type": "binding", "settings": "statement in words, compared with compound 48", "experimental": "as §1"}, "various enzymes [16]": {"biological_target": "various enzymes (Homo sapiens, UniProt P00533, DEL747-749/A750P)", "settings": "EGFR(L747-E749del, A750P); 1 uM", "method": "as §2"}}, "data": [{"smiles": "CN1Cc2nn(C)c(C#N)c2-c2cnc3[nH]cc(c3c2)-c2cn(nc2C(F)(F)F)CCCC1=O", "note": "[Compound 48, (Z)-31,5-dimethyl-6-oxo-13-(trifluoromethyl)-11H,21H,31H-5-aza-2(3,5)-pyrrolo[2,3-b]pyridina-1(4,1),3(4,3)-dipyrazolacyclononaphane-35-carbonitrile]", "values": [{"measurement": "IC50", "setting": "various enzymes [1]", "result": 212, "unit": "nM"}, {"measurement": "IC50", "setting": "various enzymes [2]", "result": 354, "unit": "nM"}, {"measurement": "Ambit profiling", "setting": "various enzymes [3]", "result": 2.2}, {"measurement": "Ambit profiling", "setting": "various enzymes [4]", "result": 46}, {"measurement": "Ambit profiling", "setting": "various enzymes [5]", "result": 2.9}, {"measurement": "Ambit profiling", "setting": "various enzymes [6]", "result": 94}, {"measurement": "IC50", "setting": "various enzymes [7]", "result": 173, "unit": "nM"}, {"measurement": "IC50", "setting": "various enzymes [8]", "result": 830, "unit": "nM"}]}, {"smiles": "COc1c2c(nn1C)CN(C(C)C)C(=O)CCCn1cc(c(C(F)(F)F)n1)-c1c[nH]c3ncc-2cc13", "note": "[Compound 50, (Z)-5-isopropyl-35-methoxy-31-methyl-13-(trifluoromethyl)-11H,21H,31H-5-aza-2(3,5)-pyrrolo[2,3-b]pyridina-1(4,1),3(4,3)-dipyrazolacyclononaphan-6-one]", "values": [{"measurement": "IC50", "setting": "DYRK1B", "result": 146, "unit": "nM"}, {"measurement": "Ambit profiling: PAK8", "setting": "[9]", "result": 86}, {"measurement": "Ambit profiling: FGR", "setting": "various enzymes [10]", "result": 5.2}, {"measurement": "Ambit profiling: FLT3(ITD)", "setting": "various enzymes [11]", "result": 0.35}]}, {"smiles": "CC(C)N1Cc2nn(C)cc2-c2cnc3[nH]cc(c3c2)-c2cn(nc2C(F)(F)F)CCCC1=O", "note": "[Compound 45, (Z)-5-isopropyl-31-methyl-13-(trifluoromethyl)-11H,21H,31H-5-aza-2(3,5)-pyrrolo[2,3-b]pyridina-1(4,1),3(4,3)-dipyrazolacyclononaphan-6-one]", "values": [{"measurement": "Ambit profiling: AXL", "setting": "various enzymes [12]", "result": 0}, {"measurement": "Ambit profiling: DYRK1A", "setting": "various enzymes [13]", "result": 0.3}, {"measurement": "Ambit profiling: PAK6", "setting": "various enzymes [14]", "result": 70}, {"measurement": "selectivity for DYRK1A (Ambit profiling, Table 4)", "setting": "various enzymes [15]", "result": "not as selective for DYRK1A as compound 48"}, {"measurement": "Ambit profiling: FLT3(ITD)", "setting": "various enzymes [11]", "result": 0.3}]}, {"smiles": "CN1Cc2nn(C)cc2-c2cnc3[nH]cc(c3c2)-c2cnn(c2)CCCC1=O", "note": "[Compound 41, (Z)-31,5-dimethyl-11H,21H,31H-5-aza-2(3,5)-pyrrolo[2,3-b]pyridina-1(4,1),3(4,3)-dipyrazolacyclononaphan-6-one]", "values": [{"measurement": "Ambit profiling", "setting": "various enzymes [16]", "result": 79}]}]}
